Assay results taken from patent publication US20230201360A1, “Composition and Kit for colonization in gut of external probiotics through bioorthogonal click chemistry” (RESEARCH & BUSINESS FOUNDATION SUNGKYUNKWAN UNIVERSITY, priority 2021, published 2023).

Key:
HT29-MTX-e12 cells [1] = test: Western blot analysis of azide group introduced into goblet cell-like cells; format: cell-based; settings: various concentrations, 24 hours
Procedure: For quantitative evaluation of an azide group according to the precursor treatment concentration, HT29-MTX-e12 cells in 10 mL medium without sugar or containing various concentrations of GalNAz or ManNAz were inoculated onto 60 mm×15 mm polystyrene tissue culture plates at a density of 2×10^6 cells per plate, and cultured for 24 hours. The cells were obtained after washing with PBS (pH 7.4), lysed in a cell lysis solution (50 mM Tris, pH 7.2, 150 mM NaCl, 1% Triton X-100, 200 ng/mL phenylmethylsulfonyl fluoride) containing phosphatase inhibitor cocktail (St. Louis, Mo., USA), and 10 μL of phosphine-PEG-biotin (Waltham, Mass., Thermofisher Scientific) per 100 μL of the lysate was reacted at room temperature for 12 hours. Then, after subjecting the resultant to electrophoresis on 10% SDS polyacrylamide gel to be transferred to Immobilon P membrane (Millipore Corporation, Billerica, Mass., USA), treated with 1,000:1 diluted HRP-streptavidin (Waltham, Mass., Thermofisher Scientific) at room temperature for 2 hours, and confirmed by developing on Pierce™ECL Western blotting substrate (Waltham, Mass., Thermofisher Scientific).

HT29-MTX-e12 cells [2] = test: Binding of DBCO-Bac. in 3-dimensional intestinal mucosal simulation model; format: cell-based; settings: 100 μM precursor; 3D fluorescence image
Procedure: To evaluate the binding ability of DBCO-Bac. to the mucosa in a three-dimensional environment, mucosal formation of HT29-MTX-e12 cells was promoted through N-[N-(3,5-difluorophenacetyl)-L-alanyl]-S-phenylglycine t-butyl ester (DAPT) stimulation, and a 3D intestinal mucosal simulation model was prepared using the same. HT29-MTX-e12 cells were inoculated in DMEM medium and cultured for 24 hours, treated with 20 μM DAPT 4 times at intervals of once every 2 days, and from the second DAPT treatment, treated with the culture medium containing 100 μM GalNAz or ManNAz three times at intervals of once every two days. Then, the resultant was treated with DBCO-Bac. at a concentration of 5×10^8/mL.
Additionally, in order to evaluate the binding ability of DBCO-Bac. to the intestinal mucosa in a three-dimensional environment, a three-dimensional intestinal mucosal simulation model was prepared using HT29-MTX-e12 cells in which mucosal formation was promoted through DAPT stimulation by the method of Example 4 above.

mouse intestinal mucosa [3] = test: Azide group expression in mouse intestinal mucosa after oral administration (DBCO-Cy5.5 staining); format: in vivo, mice; settings: 5 mg per animal, duodenum, jejunum, ileum, colon
Procedure: To confirm the expression level and expression time of an azide group in the intestinal mucosa, GalNAz or ManNAz was orally administered to mice, and the expression level of an azide group in the intestinal mucosa was evaluated through the binding ability with DBCO-Cy5.5. 5 mg of GalNAz or ManNAz was orally administered per animal, the intestinal tissue was divided into 4 parts (duodenum, jejunum, ileum, and colon) of the small intestine and extracted after 12 hours, 24 hours, 36 hours, and 48 hours at intervals of 12 hours, and dipped in 20 μM of each DBCO-Cy5.5 solution and stained.
In the case of introducing an azide group into the mouse intestinal mucosa, after oral administration of GalNAz or ManNAz to mice by the method of Example 5 above, the expression level of an azide group in the intestinal mucosa was evaluated through the binding ability with DBCO-Cy5.5.

HT29-MTX-e12 cells [4] = test: Binding of DBCO-Bac. to azide-introduced goblet cell-like cells (fluorescence images, flow cytometry); format: cell-based; settings: for binding ability to DBCO-Bac. increase compared to the control group: cells treated with 100 μM precursor; for green fluorescence (distribution of DBCO-Bac. in the culture dish) compared to the control group: low-magnification fluorescence imaging
Source text: (§1) In order to evaluate the introduction of an azide group (—N3) (i.e., a functional group for bioorthogonal click chemistry) to the intestinal mucosa, HT29-MTX-e12 cells, which are goblet cell-like cells in vitro, were used. An azide group was introduced to the cell surface through glycan manipulation using tetraacetylated N-azidoacetyl-D-mannosamine (ManNAz) and tetraacetylated N-azidoacetyl-D-galactosamine (GalNAz), which are derivatives of mannosamine and galactosamine, which is a molecule used for mucosal formation. Specifically, HT29-MTX-e12 cells were cultured for 24 hours in DMEM medium containing 100 μM ManNAz or GalNAz. The azide group introduced was subjected to fluorescent labeling by culturing for 30 minutes in a medium containing 10 μM DBCO-Cy5.5, washed twice with physiological saline at 4° C., reacted with 20 μM Hoechst 33342 for 15 minutes, and then the cell nuclei were stained and observed.
When DBCO-Bac. is treated on goblet cell-like cells into which an azide group has been introduced in Experimental Example 3, red fluorescence representing an azide group and green fluorescence representing DBCO-Bac. appear clearly as shown in FIG. 5A.

HT29-MTX-e12 cells [5] = test: Azide group expression in goblet cell-like cells, DBCO-Cy5.5 fluorescence imaging; format: cell-based; settings: 100 μM, 24 hours; DBCO-Cy5.5 labeling
Source text: as §1
In the case of introduction of an azide group into the intestinal mucosa, after introduction of an azide group into the HT29-MTX-e12 goblet cell-like cell line by the method of Example 2, the binding ability with DBCO-Cy5.5 was evaluated.

mouse intestinal mucosa [6] = test: Bac. remaining in mouse intestinal mucosa after simultaneous treatment with two DBCO-modified bacterial groups; format: in vivo, mice; settings: oral precursor, simultaneous treatment with both DBCO-modified bacteria
Procedure: In addition, in order to evaluate the intestinal mucosal binding ability of DBCO-Bac., GalNAz or ManNAz per animal was orally administered to 5 mg mice, and 24 hours thereafter, DBCO-Bac. was administered at a concentration of 10^9/mL.
In order to confirm whether bioorthogonal click chemistry of DBCO and an azide group is applicable when several groups of bacteria were administered at once as in probiotics, GalNAz and ManNAz were each orally administered to mice by the method of Example 5, and simultaneously treated with Bifidobacterium longum modified with DBCO and Lactobacillus acidophilus modified with DBCO, and the fluorescence value of Bac. remaining in the intestinal mucosa was confirmed.

CC(=O)OCC1OC(OC(C)=O)C(NC(=O)CN=[N+]=[N-])[C@@H](OC(C)=O)[C@H]1OC(C)=O (stereo partly drawn) [GalNAz, tetraacetylated N-azidoacetyl-D-galactosamine]
generation of an azide group (HT29-MTX-e12 cells [1]): increased depending on the concentration | green fluorescence (binding ability to DBCO-Bac.) compared to the control group (HT29-MTX-e12 cells [2]): increased significantly | time after oral administration at which fluorescence intensity (azide expression) was strongest (mouse intestinal mucosa [3]): about 24 hours | binding ability to DBCO-Bac. increase compared to the control group (HT29-MTX-e12 cells [4]): about 400 times | green fluorescence (distribution of DBCO-Bac. in the culture dish) compared to the control group (HT29-MTX-e12 cells [4]): increased | red fluorescence (azide group) in HT29-MTX-e12 cells (HT29-MTX-e12 cells [5]): red fluorescence appeared | amounts of DBCO-modified Bifidobacterium longum and Lactobacillus acidophilus remaining in the intestinal mucosa compared to the control group (mouse intestinal mucosa [6]): higher

tetraacetylated N-azidoacetyl-D-mannosamine [ManNAz]
generation of an azide group (HT29-MTX-e12 cells [1]): increased depending on the concentration | green fluorescence (binding ability to DBCO-Bac.) compared to the control group (HT29-MTX-e12 cells [2]): increased significantly | time after oral administration at which fluorescence intensity (azide expression) was strongest (mouse intestinal mucosa [3]): about 24 hours | binding ability to DBCO-Bac. increase compared to the control group (HT29-MTX-e12 cells [4]): about 500 times | green fluorescence (distribution of DBCO-Bac. in the culture dish) compared to the control group (HT29-MTX-e12 cells [4]): increased | red fluorescence (azide group) in HT29-MTX-e12 cells (HT29-MTX-e12 cells [5]): red fluorescence appeared | amounts of DBCO-modified Bifidobacterium longum and Lactobacillus acidophilus remaining in the intestinal mucosa compared to the control group (mouse intestinal mucosa [6]): significantly higher
